# Experimental data: PubChem BioAssay AID179 (DTP/NCI, 2004)
# Activity calls are given as the source filed them.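 Rule for the calls: active = compounds giving half or more protection of infected cells from virus-caused growth loss, again on retest; inactive = the rest.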
# System: CEM cells HIV-1 protection, formazan growth assay
# Assay: NCI AIDS Antiviral Assay
# Conditions: for IC50: measured here: growth of uninfected CEM cells
# Outline: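 Protection of CEM cells against HIV-1 was scored from cell growth (soluble formazan) across five concentrations, with parallel uninfected cells. Lack of protection may reflect toxicity.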
SMILES,EC50 [µM],IC50 [µM],outcome
Cc1cc(Br)c2nsnc2c1[N+](=O)[O-],> 26.3,2.57,–
CN(O)C1CC(=O)OC1CO[Si](C)(C)C(C)(C)C (configuration not stated),> 200,51.3,–
COC1CC(OC2C(C)OC(OC3C(C)OC(OC4C(C)OC(O[C@H]5CC[C@@]6(C)C(=CC[C@]7(O)[C@@H]6C[C@@H](OC(C)=O)[C@@]6(C)[C@]7(O)CC[C@@]6(O)C(C)=O)C5)CC4OC)CC3OC)CC2OC)OC(C)C1O (some centres not stated),> 200,> 200,–
CCOc1ccccc1NC(=O)C(=O)CC(=O)c1sc(Nc2nnc(-c3ccc(Cl)c(Cl)c3)o2)nc1C,> 33.9,> 33.9,–
N#CC(C#N)C1CN2CCC1CC2 (configuration not stated),> 200,> 200,–
CNC(SC)=C1C(=O)OC(C)(C)OC1=O,> 1070,457,–
CC(CC(=O)N1C2CC3CCC2(CS1(=O)=O)C3(C)C)[Si](C)(C)C (configuration not stated),> 200,74.1,–
CN1CCN(c2nc3c(c(=O)n(C)c(=O)n3C)n2C)CC1,> 759,> 759,–
CC1(C)C2(C(N)=O)C(=O)NC(=O)C12C(=O)O (configuration not stated),> 200,> 200,–
C#CC1(O)CC[C@H]2[C@@H]3CCC4=CCCC[C@@H]4[C@H]3CC[C@@]21C (some centres not stated),> 200,30.9,–
NC1=NN(c2ccccc2)C(=O)C1C(=O)CCC(=O)Nc1cccc(Cl)c1 (configuration not stated),> 339,> 339,–
S=c1[nH]nc(-c2ccccc2Cl)o1,> 200,195,–
Cn1c(-c2ccccc2)cc2c3ccsc3c3ccsc3c21,> 200,45.7,–
Cc1ccc(S(=O)(=O)OC(c2ccccc2)c2ccccc2)cc1,> 15.5,10.5,–
COc1ccc2c(c1)CCc1c-2n(CCN(C)C)c2ccc(OC)cc12,> 200,6.17,–
Cc1cnc(SCCN2CCN(C)CC2)nc1-c1cc2ccccc2s1,> 646,1.29,–
Cc1c(C(=N)C(C#N)C#N)c(=N)oc2c1ccc1ccccc12,> 200,26.9,–
CCOP(=O)(OCC)/C(=C/NC(=S)c1ccncc1)C(=O)OC,126,186,–
Clc1ccc(C=Nc2ccc(SSc3ccc(N=Cc4ccc(Cl)cc4)cc3)cc2)cc1,> 200,22.4,–
C1CSCC2(COC2)CSCCSCC2(COC2)CS1,> 14.8,> 14.8,–
Cc1ccc(N=Nc2c(N)nn3cc4c(nc23)CCC4)cc1,> 200,> 200,–
O=C(O)C1c2ccccc2C(C(=O)O)c2ccccc21 (configuration not stated),–,–,inactive

SMILES,EC50 [µM],IC50 [µM],outcome
Oc1ccccc1-c1nnc2sc3c(Cl)c4nn5c(-c6ccccc6O)nnc5sc4c(Cl)c3nn12,> 200,36.3,–
CCCCn1c(-c2ccccc2)cs/c1=N\Nc1nc2c(c(=O)n(C)c(=O)n2C)n1C,> 200,10.7,–
CC1CCCCNC1=S (configuration not stated),> 200,> 200,–
CCN(CC)C(=S)SS(=O)(=O)c1ccccc1[N+](=O)[O-],> 200,7.24,–
O=C(Nc1ccc(Cl)c(Cl)c1)C(=O)C(C1OC(=O)c2ccccc21)[N+](=O)[O-] (configuration not stated),> 87.1,> 87.1,–
O=C(Nc1ccc(N=Nc2ccc(S(=O)(=O)O)cc2)cc1)c1ccc(N=Nc2c(S(=O)(=O)O)cc(O)c3c(NC(=O)c4ccccc4)cc(S(=O)(=O)O)cc23)cc1,–,–,active
COc1cc2c3cc1Oc1c(O)c(OC)cc4c1[C@H](Cc1ccc(cc1)Oc1cc(ccc1O)C[C@H]3N(C)CC2)N(C)CC4,–,–,inactive
COc1ccccc1/C=C1\C=Cc2ccccc21,> 204,31.6,–
Nc1nc(N)c2ncn(C3C=CC(CO)CC3)c2n1 (configuration not stated),> 200,> 200,–
S=c1[nH]nc2scnn12,> 200,> 200,–
CN(CCC#N)c1ccc(/C=C(\C#N)c2cccc(C(F)(F)F)c2)cc1,> 200,3.63,–
COc1cccc(CCCCCCCC(=O)O)c1,> 200,> 200,–
Cn1cnc([N+](=O)[O-])c1Sc1nc2ccc([N+](=O)[O-])cc2[nH]1,> 81.3,7.76,–
COc1ccc(N/N=C2\CCOc3ccc(C)cc3C2=O)cc1,> 20,12,–
CC1(C)N=C(/C(C#N)=[N+](/[O-])C(=O)c2ccccc2)C(C)(C)N1O,> 200,> 200,–
CC[n+]1c(/C=C/c2ccc(N(CCCl)CCCl)cc2)ccc2cc(I)ccc21,–,–,inactive
O=c1[nH]c2cn(-c3ccccc3)nc2c(=O)n1O,> 200,3.55,–
CC(=O)OCC1OC(NC(=S)N/N=C2\CC(c3ccccc3)Oc3ccccc32)C(OC(C)=O)C(OC(C)=O)C1OC(C)=O (configuration not stated),–,–,inactive
Cc1cc(=O)n(-c2c(C)cccc2Cl)c(/C=C(\O)c2ccncc2)n1,> 4.07,> 4.07,–
C/C=C/C=N/N(c1nnc(-c2ccccc2)c(-c2ccccc2)n1)S(=O)(=O)c1ccc(C)cc1,> 21.4,7.59,–
O=C1c2ccccc2N(O)C1(c1ccccc1)C1CCCC=C1N1CCOCC1 (configuration not stated),–,–,inactive
CCCCN=C1OCc2[nH][nH]c(=O)c21,> 1290,> 1290,–
